Results published in patent publication US8153784B2, “Imaging of enzyme activity” (The General Hospital Corporation, priority 2004, dated 2012).

Legend:
[1] = molecular target: T1, human MPO embedded in Matrigel (Homo sapiens, UniProt P05164); assay: MPO/Matrigel implant mouse model, T1-weighted MR imaging; type: in vivo; conditions: mice; right MPO/Matrigel vs left control; 1.5 T
T1 construct: purchased BioDesign, Inc
T1 sequence (P05164 49-745): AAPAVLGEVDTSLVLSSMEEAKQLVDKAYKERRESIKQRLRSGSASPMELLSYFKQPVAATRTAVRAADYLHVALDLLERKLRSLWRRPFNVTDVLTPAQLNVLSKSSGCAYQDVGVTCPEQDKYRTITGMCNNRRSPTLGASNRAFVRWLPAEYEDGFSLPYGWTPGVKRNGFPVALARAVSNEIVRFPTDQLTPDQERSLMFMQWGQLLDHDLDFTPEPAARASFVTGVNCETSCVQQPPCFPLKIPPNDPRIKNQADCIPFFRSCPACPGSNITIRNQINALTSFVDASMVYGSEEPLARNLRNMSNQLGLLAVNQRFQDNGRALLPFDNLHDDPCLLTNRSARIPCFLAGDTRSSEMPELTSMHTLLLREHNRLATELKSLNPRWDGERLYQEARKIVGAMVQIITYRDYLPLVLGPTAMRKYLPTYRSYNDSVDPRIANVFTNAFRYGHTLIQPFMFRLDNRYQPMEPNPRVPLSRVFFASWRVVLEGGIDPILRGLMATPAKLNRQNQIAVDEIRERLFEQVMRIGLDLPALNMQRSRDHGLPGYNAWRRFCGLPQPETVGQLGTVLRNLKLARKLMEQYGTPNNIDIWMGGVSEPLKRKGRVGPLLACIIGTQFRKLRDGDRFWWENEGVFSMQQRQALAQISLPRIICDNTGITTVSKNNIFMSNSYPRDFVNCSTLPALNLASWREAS
Protocol: To evaluate the monomeric substrates in vivo, we devised a mouse model that harbored 400 μL of Matrigel basement membrane matrix gel mixed 1:1 by volume with a solution containing 15 U of human MPO and glucose oxidase (as a source of hydrogen peroxide) that was injected into the right flank of the mouse. The left flank was injected with the enzyme-free Matrigel mixture. We subsequently performed T1-weighted MR imaging after the intravenous injection of Gd-DTPA-diSer substrate at the dose of […].
The MR imaging experiments were performed on a 1.5 T GE Excite scanner and a 4.7 T Bruker Pharmascan scanner. For all MR imaging experiments, precontrast T2-(TR=2000, TE=100, ETL=8, NEX=4, fast spin echo sequence) and T1-weighted images (TR=500, TE=11, NEX=4, spin echo sequence) with fat saturation were initially performed to locate the gels or area of inflammation. The substrates (0.3 mmol/kg) were subsequently injected via the tail vein of the mouse. The mouse was immediately imaged after the injection of the contrast agent using multiple T1-weighted sequences with fat saturation for at least 3 hours.
(§1) Ten-week old C57BL6 male mice were obtained from Jackson Laboratories. A total of 22 mice were used for the study. • 1. MPO/Matrigel imaging experiments: Matrigel™ (Beckton-Dickinson), a […] basement membrane matrix gel was used to immobilize human MPO and glucose oxidase (to supply H2O2 required for detecting MPO oxidative activity, Calbiochem). This was chosen to reflect deposits of human MPO in inflamed tissue in a mouse model. 400 μL of a mixture of Matrigel™ and MEM (Cambrex) was injected slowly into the thighs of each mouse one hour prior to imaging. The right thigh mixture also contained 15 U of MPO and 4 U of glucose oxidase (Calbiochem), while the left thigh mixture contained no enzyme and thus serves as an internal control. A total of 15 mice were used (3 mice each for 5-HT-DOTA(Gd), bis-5-HT-DTPA(Gd), bis-5-HT-DTPA-^111In, bis-tyramide-DTPA(Gd), and DTPA(Gd)). • 2. LPS/Matrigel experiments (n=3): This model was developed to induce endogeneous mouse MPO secretion and activation. 200 μL total volume Matrigel containing 10% heparin was injected slowly into the thighs of the mice 4 days prior to imaging. The right-sided mixture also contained E. coli lipopolysaccharide (LPS) at 10 μg/mL. One mouse was sacrificed for immunohistochemistry. • 3. Myositis experiments (n=4): LPS at 100 μg/mL in PBS was injected into each mouse intramuscularly in the right flank to produce myositis. The mice are imaged 24 hours after injection.
For normalized signal intensity measured on T1-weighted images, mean±standard deviation (SD) values were calculated in regions of interest (ROI). Contrast-to-noise (CNR) ratios were computed for each ROI according to the formula

[2] = Biodistribution of 111In tracer; type: in vivo, mouse; conditions: mice, 6 h post injection
Protocol: (§2) 80-100 μCi of ^111In-bis-5-HT-DTPA in 200 μL of saline was injected intravenously into three mice prepared in the same manner as in the MPO/Matrigel MR imaging experiments. The animals were imaged 3 hours after injection on a high resolution X-SPECT/CT system (Gamma Medica). Six hours after injection, the animals were sacrificed and biodistribution was determined in major organs. The % dose accumulated per gram of major organs was determined by using the 1480 Wizard gamma counter (Perkin-Elmer).

MPO = molecular target: T2, MPO (Homo sapiens, UniProt P05164); assay: SPECT-CT imaging of MPO/Matrigel implants with 111In tracer; type: in vivo, mouse; set-up: purchased BioDesign, Inc
T2 sequence (P05164 49-745): T1 sequence (P05164 49-745)
Protocol: as §1, §2

human neutrophil MPO = molecular target: T3, human neutrophil MPO (Homo sapiens, UniProt P05164); assay: MPO-mediated polymerization of DOTA(Gd) substrates: T1/T2 relaxivity change; type: biochemical; conditions: for relaxivity ratio: ˜2000 U of MPO activity
T3 construct: purchased BioDesign Inc
Protocol: (§3) Reactions with HRP and MPO were carried out at room temperature in the presence of 0.5-1 mM substrate dissolved in 0.5 ml PBS containing H2O2 (2 mM). Reaction was initiated by adding an aliquot containing the enzyme (either HRP or MPO) and vortexing. After at least a 30 min incubation period T1 was measured using inversion-recovery pulse sequence Bruker Minispec (Buker Analytics, North Bellirica Mass.) at 0.47 T (20 MHz). Size-exclusion HPLC of reaction products was performed on TSK G3000SWXL macroporous column (Supelco) eluted with 0.1 M triethylammonium acetate, pH 7.0 at 1 ml/min.
(§4) Standard 96-well plates were prepared and imaged on a 1.5 T whole body clinical General Electric Signa MRI scanner utilizing a standard 3 inch surface coil. Inversion recovery sequences were used to measure T1 relaxation and spin echo sequences were utilized to measure T2 relaxation. T2 weighted images were obtained with TR=5000 ms and TE=100 ms with a fast spin echo sequence. T1 weighted images were obtained with spin echo sequences with the following parameters: TR=100, 200, 350, or 500, TE=11. For the Matrigel™ experiments, a relatively T2 weighted image was obtained at TR=300 ms and TE=200 ms. Single-exponential models were used to obtain T1 and T2. The relaxivities were computed by normalizing relaxation rates to the concentration of gadolinium in each sample, obtained by inductive coupled plasma (ICP) analysis performed by Galbraith Laboratories.
To determine the effect of myeloperoxidase on the substrates, we performed T1 and T2 relaxivity measurements in aqueous solutions, with and without MPO and hydrogen peroxide, at 0.47 T and 1.5 T (the results are summarized in FIGS. 3A and 3B for tyramide-DOTA(Gd) and FIGS. 4A and 4B for 5-HT-DOTA(Gd)). For reference, the two substrates were also reacted with HRP (solid symbols in FIGS. 3A and 3B and FIGS. 4A and 4B).

MPO-I = molecular target: T4, MPO-I (Homo sapiens, UniProt P05164); conditions: cited from earlier work
T4 sequence (P05164 49-745): T1 sequence (P05164 49-745)

[3] = molecular target: T5, horseradish peroxidase (HRP) (Armoracia rusticana, UniProt P00433); assay: HRP-mediated polymerization of DOTA(Gd) substrates: relaxivity change; type: biochemical; set-up: purchased Sigma
T5 sequence (P00433 31-338): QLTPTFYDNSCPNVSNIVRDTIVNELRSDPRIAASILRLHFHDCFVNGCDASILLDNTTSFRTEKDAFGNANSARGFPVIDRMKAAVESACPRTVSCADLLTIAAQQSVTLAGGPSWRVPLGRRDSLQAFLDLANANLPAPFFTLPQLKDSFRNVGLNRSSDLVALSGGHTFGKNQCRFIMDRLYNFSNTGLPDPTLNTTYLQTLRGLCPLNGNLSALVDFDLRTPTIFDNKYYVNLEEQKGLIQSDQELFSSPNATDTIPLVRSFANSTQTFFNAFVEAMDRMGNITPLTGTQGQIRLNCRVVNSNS
Protocol: as §3
as §4, with “The relaxivities were computed by normalizing relaxation rates to the concentration of gadolinium in each sample, obtained by inductive coupled plasma (ICP) analysis performed by Galbraith Laboratories.” left out

[4] = molecular target: T5, horseradish peroxidase (HRP); assay: Pseudo-first-order rate constants of HRP-mediated conversion (relaxation times over time, 0.47 T); type: biochemical, horseradish; set-up: purchased Sigma-Aldrich type XII (catalogue number not given); conditions: from T1 measurements, mean±SD
Protocol: Kinetics of the samples were observed by measuring T1 and T2 at 0.47 T and 40° C. of the samples over at least a 24 hour period. At different time points, 1 M of sodium azide (final concentration=0.17 M) was added to stop the enzyme mediated reaction. The resultant progress curve was fitted with an empirical mathematical model and analyzed according to the Guggenheim method to obtain the pseudo-first-order rate constants (Guggenheim E A. Philos. Mag. 1926; 2:538).
An important property of a suitable substrate for an enzyme is the kinetics of enzymatic reaction. To determine the utility of the paramagnetic complexes as suitable substrates for human myeloperoxidase (MPO), we measured the pseudo-first-order rate constant of these substrates in MPO, and compared to the same substrates' reactions in Horse Radish Peroxidase (HRP) by monitoring the changes in relaxation time over time. […] The results shown were obtained using T1 measurements. T2 measurements yielded nearly identical results. The results are presented as mean±SD. N/A=not applicable.

In the case of `O=C(O)CN(CCN(CC(=O)O)CC(=O)NCCc1c[nH]c2ccc(O)cc12)CCN(CC(=O)O)CC(=O)NCCc1c[nH]c2ccc(O)cc12` [Compound 2], the “enhancement of MPO implant compared with control implant” value [1] is reported as “significantly increased enhancement”.

In the case of `O=C([O-])CN(CCN(CC(=O)[O-])CC(=O)NCCc1c[nH]c2ccc(O)cc12)CCN(CC(=O)[O-])CC(=O)NCCc1c[nH]c2ccc(O)cc12.[111In+3]` [^111In-bis-5-HT-DTPA], the injected dose excreted [2] is reported as 90%, the “organs holding most of the remaining dose” value [2] is reported as “spleen, bowel, kidney, and liver” and the “organs holding most of the remaining dose” value ([2]; listed as 111In-chelated monomeric substrate) is reported as “spleen, kidneys, bowel, and liver”. The “increase in the radioactivity of the right leg (with MPO) vs. the left leg (without MPO)” value (MPO; mice n=3, SPECT-CT 3 hours after injection) was 2.3±0.3 fold, the “increase in count in the dissected gel with embedded MPO” value (MPO; mice, 6 h post injection) was “greater than 4 fold” and the “uptake on the side containing MPO” value (MPO; mouse, SPECT/CT 3 hours after the injection) was “significant increased uptake”.

For `CC(C(=O)NCC(=O)NCCc1ccc(O)c(O)c1)N1CCN(CC(=O)[O-])CCN(CC(=O)[O-])CCN(CC(=O)[O-])CC1.[Gd+3]` (stereo not shown) [hydroxytyramide-DOTA(Gd), Glycylmethyl DOTA(Gd) Hydroxytyramide], the “reaction with MPO” value (human neutrophil MPO) was “does not react with MPO” and the “relaxivity increase from reaction with MPO” value (human neutrophil MPO) was “did not result in a substantially significant relaxivity increase”.

For `NCCc1c[nH]c2ccc(O)cc12` [serotonin, 3-(2-aminoethyl)-5-hydroxyindole], the “MPO-mediated oxidation in excess chloride” value (MPO-I; about 5,000 times higher excess of chloride) is listed as “could not be completely stopped” and the “kinetic constant of the MPO-I reaction relative to the reaction with chloride” value (MPO-I; neutral pH) is listed as “about 10 times”.

With `CC(C(=O)NCC(=O)NCCc1ccc(O)cc1)N1CCN(CC(=O)[O-])CCN(CC(=O)[O-])CCN(CC(=O)[O-])CC1.[Gd+3]` (stereo not shown) [tyramide-DOTA(Gd), Glycylmethyl DOTA(Gd) Tyramide] the relaxivity ratio (human neutrophil MPO; 0.47 T) was 1.7 times, the relaxivity ratio (human neutrophil MPO; 1.5 T) was 1.4 times and the “T1 shortening relative to the HRP result” value (human neutrophil MPO; 2000 U MPO) was 70-75%. The “MPO needed to reach >90% of the T1 shortening seen with HRP” value (human neutrophil MPO; assuming a linear response to the amount of MPO) was over 3000 U, the “increase in relaxivity of polymer product” value (human neutrophil MPO; equivalent amount of MPO, clinical imaging strength) was 1.4 times and the relaxivity ratio ([3]; 0.47 T) was “about 2.3 times”. The relaxivity ratio ([3]; 1.5 T) was “about 2.1 times” and the “Pseudo first-order rate constant” value [4] was 0.0095 s⁻¹.
